Experimental findings from patent US20240382509A1, “Cannabinoids C- and O-glycosides possessing anti-proliferative and anti-metastatic properties and process for preparation thereof” (Council of Scientific and Industrial Research, priority 2021, published 2024) are described below.

The test system of one data set is Panc-1 cells. Nature of the data set: MTT cell viability assay, Panc-1. In kind it is cell-based. Conditions: pancreatic cancer cells. How it is done:
(§1) Cell viability assay: The cell viability was determined by the standard MTT assay method. Briefly, Panc-1, HCT-116, A549, PC3, MIAPaca-2, HT-29, MDA-MB-231, MCF7 cells, and fR2cells were seeded in 96 well tissue culture plates (Nunc) at a density of 4×10^3 cells per well and treated with varying concentrations of the test compounds in triplicates. DMSO was taken as a vehicle, and its final concentration was maintained at 0.2% in the culture medium. Doxorubicin was employed as a positive control. After 44 h of incubation, MTT dye solution was added into the medium, and cells were incubated for another 4 h at 37° C. in 5% CO2. The amount of colored formazan derivatives formed was measured by taking optical density (OD) using a microplate reader (TECAN, Infinite M200 Pro) at 570 nm, and the percentage of cell viability was calculated. The IC50 values were calculated using GraphPad Prism software (Version 5.0).
A general note: Tetrazolium assays rely on reduction of a dye to a coloured formazan, in cell work by metabolically active cells.

Data set [1] deals with human colorectal adenocarcinoma cell line (HT-29). The data set can be described thus: MTT cell viability assay, HT-29. The following applies: human colorectal adenocarcinoma cell line. The class given is cell-based. How it is done:
as §1

Data set [2] concerns lung adenocarcinoma cells (A549). The data set can be described thus: MTT cell viability assay, A549. In kind it is cell-based. How it is done:
as §1

The next data set relates to MCF-7 cells. The data set can be described thus: MTT cell viability assay, MCF-7. In kind it is cell-based. The following applies: breast cancer cell of epithelial origin. How it is done:
as §1

The next data set has as its system HCT-116 cells. Nature of the data set: MTT cell viability assay, HCT-116. In kind it is cell-based. The following applies: colorectal adenocarcinoma cells. How it is done:
as §1

For a further data set, the system named is MIAPaCa-2 cells. The data set can be described thus: MTT cell viability assay, MIAPaCa-2. The class given is cell-based, human. How it is done: as §1
In a further data set the test system is PC3 cells. The data set can be described thus: MTT cell viability assay, PC3. In kind it is cell-based. How it is done:
as §1

Data set [3] concerns 4T1 mouse mammary carcinoma cells. Nature of the data set: 4T1 allograft breast cancer model, anti-tumor and anti-metastatic efficacy. The class given is in vivo. The following applies: tumor lysate immunoblot, 30 mg/kg. How it is done:
In vivo anti-metastatic and anti-tumor efficacy studies. 4T1 mouse mammary carcinoma cells is a highly aggressive cell line that forms tumors when grafted in Balb/c mice. […] All the in vivo experimental protocols were approved by the Institutional Animal Ethics Committee, CPCSEA, of the Indian Institute of Integrative Medicine, Jammu. The animals were maintained at 22° C. with a 12 h light-dark cycle and free access to feed and water inside the institutional animal house. Proper care was taken to maintain them in a healthy condition and to avoid any risk of possible pathogenic contaminations. For subcutaneous implantation of 4T1 cells, the Balb/c mice were distributed into four groups bearing five mice in each group. For tumor induction, 1.5 million 4T1 cells were suspended in serum-free media and injected into the mammary pad of the animal and kept in the animal house for tumor induction. After the tumor reached an adequate size (30-150 mm^3) the mice in the allotted groups were treated with vehicle (normal saline), 15 and 30 mg/kg 2a & 30 mg/kg DIM (positive control) for every alternate day and was continued for two weeks. After the treatment, the mice were sacrificed by cervical dislocation, and the tumor was dissected out from the mammary pad, the tumor volume was measured, and images were taken. Subsequently, to examine the anti-metastatic property of the compound 2a, the chest cavity was dissected to remove the lungs, and after washing with PBS, the metastatic nodules in the lung due to 4T1 migration were checked and subsequently counted.
The anti-proliferative as well as anti-metastatic role of compound 2a was studied in 4T1 allograft breast cancer model. Briefly, 1.5×10^6 4T1 mammary breast cancer cells were injected in mouse mammary pad and kept undisturbed until the formation of tumor. Subsequently, the mice were treated with 15 and 30 mg/kg of compound 2a along with a positive control 30 mg/kg di-indoyl methane (DIM) molecule and normal saline as vehicle. The drugs were administered intraperitonially for each alternate day for 2 weeks. The animals were sacrificed and tumours were harvested from the mammary pad and tumor weight was measured (FIG. 7a & b). Moreover, the lungs were also removed and photographed to study the presence of metastatic patches. […] Furthermore, the tumors were subjected to tissue lysis and immunoblot analysis was performed to study the expression of Snail-1. Twist-1, STAT-3, Vimentin and E-cadherin.

The mark [4] stands for this setting: Homo sapiens, PANC-1, 48 h, read-out: Cytotoxicity (IC50) Panc-1, MTT, 48 h.
[5] abbreviates: Homo sapiens, HT-29, 48 h, read-out: Cytotoxicity (IC50) HT-29, MTT, 48 h.
The mark [6] stands for this setting: Homo sapiens, A549, 48 h, read-out: Cytotoxicity (IC50) A549, MTT, 48 h.
Setting [7] is: Homo sapiens, MCF7, 48 h, read-out: Cytotoxicity (IC50) MCF-7, MTT, 48 h.
Setting [8] is: Homo sapiens, HCT-116, 48 h, read-out: Cytotoxicity (IC50) HCT-116, MTT, 48 h.
The mark [9] stands for this setting: Homo sapiens, MIA PaCa-2, 48 h, read-out: Cytotoxicity (IC50) MIAPaCa-2, MTT, 48 h.
Where [10] appears, read: Homo sapiens, PC-3, 48 h, read-out: Cytotoxicity (IC50) PC3, MTT, 48 h.
The mark [11] stands for this setting: MTT, 48 h, read-out: Cytotoxicity (IC50) Panc-1.
[12] abbreviates: MTT, 48 h, read-out: Cytotoxicity (IC50) HT-29.
The mark [13] stands for this setting: MTT, 48 h, read-out: Cytotoxicity (IC50) A549.
The mark [14] stands for this setting: MTT, 48 h, read-out: Cytotoxicity (IC50) MCF-7.
The mark [15] stands for this setting: MTT, 48 h, read-out: Cytotoxicity (IC50) HCT-116.
Setting [16] is: MTT, 48 h, read-out: Cytotoxicity (IC50) MIAPaCa-2.
Setting [17] is: MTT, 48 h, read-out: Cytotoxicity (IC50) PC3.

For orientation: IC50 means the point on the concentration scale where inhibition reaches its midpoint.

Read-outs that look alike come from different tables or passages of the source.

Regarding `CCCCCc1cc(O)c2c(c1)OC(C)(C)c1ccc(C)cc1-2` (single isomer, unassigned) [Compound 4, Cannabinol, reference compound], the IC50 is 11.8 µM with Panc-1 cells (setting [4]); 20.4 µM in data set [1] (setting [5]); 2.13 µM in data set [2] (setting [6]); 50.6 µM in the data set with MCF-7 cells (setting [7]); 47.1 µM with HCT-116 cells (setting [8]); 1.63 µM in the data set on MIAPaCa-2 cells (setting [9]). The IC50 in the data set with PC3 cells (setting [10]) is 28 µM.

Regarding `CCCc1cc(O)c2c(c1)OC(C)(C)[C@@H]1CCC(C)=C[C@@H]21` [Compound 1, Δ^9-tetrahydrocannabivarin, reference compound], the half-inhibitory concentration (IC50) is 9.28 µM in the data set with Panc-1 cells (setting [11]); 46.2 µM in data set [1] (setting [12]); 39.4 µM in data set [2] (setting [13]); greater than 100 µM in the data set with MCF-7 cells (setting [14]); 10.7 µM in the data set on HCT-116 cells (setting [15]); 23.2 µM with MIAPaCa-2 cells (setting [16]). Besides, the 50% inhibitory concentration (IC50) in the data set with PC3 cells (setting [17]) was 88.2 µM.

For `CCCc1cc(O[C@@H]2OC(CO)[C@@H](O)C(O)C2O)c2c(c1)OC(C)(C)[C@@H]1CC=C(C)C[C@@H]21` (stereo partly drawn) [Compound 1a, Δ^8-tetrahydrocannabivarin-1-O-β-D-glucopyranoside], the IC50 is 21.4 µM in the data set with Panc-1 cells (setting [4]); greater than 100 µM in data set [1] (setting [5]); 53.1 µM in data set [2] (setting [6]); 90.6 µM with MCF-7 cells (setting [7]); 32.9 µM in the data set on HCT-116 cells (setting [8]); greater than 100 µM in the data set on MIAPaCa-2 cells (setting [9]). Moreover, the concentration for half-maximal inhibition (IC50) in the data set with PC3 cells (setting [10]) was greater than 100 µM.

Consider `CCCCCc1cc(O)c2c(c1)OC(C)(C)[C@@H]1CCC(C)=C[C@@H]21` [Compound 2, Δ^9-tetrahydrocannabinol, reference compound], for which the IC50 is 21.1 µM with Panc-1 cells (setting [11]); greater than 100 µM in data set [1] (setting [12]); 11.7 µM in data set [2] (setting [13]); 43 µM in the data set with MCF-7 cells (setting [14]); 19 µM with HCT-116 cells (setting [15]); 4.47 µM in the data set on MIAPaCa-2 cells (setting [16]). For the same molecule, the IC50 in the data set with PC3 cells (setting [17]) was greater than 100 µM.

Turning to `CCCCCc1cc(O)c2c(c1)OC(C)(C)[C@@H]1CC=C(C)C[C@@H]21` [Compound 3, Δ^8-tetrahydrocannabinol, reference compound], the IC50 in the data set with Panc-1 cells (setting [11]) was 50.9 µM; in data set [1] (setting [12]), greater than 100 µM; in data set [2] (setting [13]), 11.6 µM; with MCF-7 cells (setting [14]), 26.7 µM; in the data set with HCT-116 cells (setting [15]) it was 27.3 µM; in the data set on MIAPaCa-2 cells (setting [16]) it was 2.46 µM. Also, in the data set with PC3 cells (setting [17]), the half-inhibitory concentration (IC50) was 28 µM.

As to `c1ccc2c(Cc3c[nH]c4ccccc34)c[nH]c2c1` [DIM, di-indoyl methane, reference compound], the “tumor expression of Snail-1, STAT-3 and Vimentin (positive control)” value in data set [3] is reported as “decreases significantly”.
